Assay results from patent publication US11242337B2, “Compounds useful for treating gastrointestinal tract disorders” (Ardelyx, Inc., priority 2017, dated 2022).

Assays:
[1] = target: T1, NHE3 (Homo sapiens, UniProt P48764); assay: Cell-based assay of NHE-3 activity (pre-incubation inhibition), human; details: human Preincubation; for pIC50: 0-30 μM test compound
T1 construct: expressed in transfected cells
T1 sequence (P48764 26-834): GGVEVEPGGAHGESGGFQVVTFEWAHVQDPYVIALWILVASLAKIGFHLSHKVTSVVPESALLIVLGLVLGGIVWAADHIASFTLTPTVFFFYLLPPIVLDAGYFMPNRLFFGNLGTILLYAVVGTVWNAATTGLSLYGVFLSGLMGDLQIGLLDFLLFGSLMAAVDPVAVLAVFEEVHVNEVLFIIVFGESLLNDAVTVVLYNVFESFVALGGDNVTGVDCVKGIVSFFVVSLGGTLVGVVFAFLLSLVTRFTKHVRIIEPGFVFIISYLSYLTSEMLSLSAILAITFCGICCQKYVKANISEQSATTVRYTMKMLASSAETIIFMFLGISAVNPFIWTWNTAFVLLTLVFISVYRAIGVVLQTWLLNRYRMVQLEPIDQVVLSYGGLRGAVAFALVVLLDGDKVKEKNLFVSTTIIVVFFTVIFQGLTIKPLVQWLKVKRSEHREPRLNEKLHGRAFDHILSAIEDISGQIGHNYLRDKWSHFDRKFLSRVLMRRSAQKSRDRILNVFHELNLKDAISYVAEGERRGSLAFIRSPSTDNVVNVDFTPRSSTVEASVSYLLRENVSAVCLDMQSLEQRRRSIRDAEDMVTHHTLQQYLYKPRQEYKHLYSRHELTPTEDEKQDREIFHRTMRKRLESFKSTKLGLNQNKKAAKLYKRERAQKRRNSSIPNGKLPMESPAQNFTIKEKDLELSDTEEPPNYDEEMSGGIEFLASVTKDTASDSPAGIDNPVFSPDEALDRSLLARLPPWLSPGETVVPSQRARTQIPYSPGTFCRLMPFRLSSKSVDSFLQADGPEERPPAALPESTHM
T1 sequence (Q99653 2-195 partner limits assumed): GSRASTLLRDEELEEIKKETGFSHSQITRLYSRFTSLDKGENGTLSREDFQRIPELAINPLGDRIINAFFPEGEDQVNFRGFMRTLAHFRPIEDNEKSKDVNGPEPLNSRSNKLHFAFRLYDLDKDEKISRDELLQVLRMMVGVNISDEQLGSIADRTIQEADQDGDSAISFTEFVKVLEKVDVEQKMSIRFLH
Procedure: Rat and human NHE-3-mediated Na^+-dependent H^+ antiport was measured using a modification of the pH sensitive dye method originally reported by Paradiso (Proc. Natl. Acad. Sci. USA. (1984) 81(23): 7436-7440). PS120 fibroblasts stably expressing human NHE3 and NHERF2 were obtained from Mark Donowitz (Baltimore, Md.). Opossum kidney (OK) cells were obtained from the ATCC and propagated per their instructions. The rat NHE-3 gene (GenBank M85300) was introduced into OK cells via electroporation, and cells were seeded into 96 well plates and grown overnight. Medium was aspirated from the wells then incubated for 30 min at 37° C. with NH4Cl-HEPES buffer (20 mM NH4Cl, 80 mM NaCl, 50 mM HEPES, 5 mM KCl, 2 mM CaCl2, 1 mM MgCl2, pH 7.4) containing 5 μM BCECF-AM. Cells were washed once with Ammonium free, Na^+-free HEPES (100 mM choline, 50 mM HEPES, 10 mM glucose, 5 mM KCl, 2 mM CaCl2, 1 mM MgCl2, pH 7.4) and incubated in the same buffer for 10 minutes at room temperature to lower intracellular pH with 0-30 μM test compound. […] Changes in intracellular pH were monitored using a FLIPR Tetra® (Molecular Devices, Sunnyvale, Calif.) by excitation at λex 439 to 505 nm, and measuring BCECF fluorescence at λem 538 nm. The initial rate of the fluorescence ratio change was used as a measure of NHE-mediated Na^+/H^+ activity, and reported as the change in fluorescence ratio per minute.

[2] = target: T1, NHE3; assay: Cell-based assay of NHE-3 activity (persistent inhibition), human; details: human Persistence, 60 min incubation then washout
Procedure: The ability of compounds to inhibit human and rat NHE-3-mediated Na^+ dependent H^+ antiport after application and washout was measured using a modification of the pH sensitive dye method described above. PS120 fibroblasts stably expressing human NHE3 and NHERF2 were obtained from Mark Donowitz (Baltimore, Md.). Opossum kidney (OK) cells were obtained from the ATCC and propagated per their instructions. The rat NHE-3 gene was introduced into OK cells via electroporation, and cells were seeded into 96 well plates and grown overnight. Medium was aspirated from the wells, cells were washed once with NaCl-HEPES buffer (100 mM NaCl, 50 mM HEPES, 10 mM glucose, 5 mM KCl, 2 mM CaCl2, 1 mM MgCl2, pH 7.4), then overlayed with NaCl-HEPES buffer containing 0-30 μM test compound. After a 60 min incubation at room temperature, the test drug containing buffer was aspirated from the cells. Following aspiration, cells were washed once with NaCl-HEPES buffer without drug, then incubated for 30 min at 37° C. with NH4Cl-HEPES buffer (20 mM NH4Cl, 80 mM NaCl, 50 mM HEPES, 5 mM KCl, 2 mM CaCl2, 1 mM MgCl2, pH 7.4) containing 5 μM BCECF-AM. Cells were washed once with Ammonium free, Na^+-free HEPES (100 mM choline, 50 mM HEPES, 10 mM glucose, 5 mM KCl, 2 mM CaCl2, 1 mM MgCl2, pH 7.4) and incubated in the same buffer for 10 minutes at room temperature to lower intracellular pH. NHE-3-mediated recovery of neutral intracellular pH was initiated (10 min after compound washout) by addition of Na-HEPES buffer. […] Changes in intracellular pH were monitored using a FLIPR Tetra® (Molecular Devices, Sunnyvale, Calif.) by excitation at λex 439 to 505 nm, and measuring BCECF fluorescence at λem 538 nm. The initial rate of the fluorescence ratio change was used as a measure of NHE-mediated Na^+/H^+ activity, and reported as the change in fluorescence ratio per minute.

Row | Structure (SMILES) | % inhibition [1] | pIC50 [1] | % inhibition [2] | pIC50 [2]
1 | Cc1cc(S(=O)(=O)NCCOCCOCCNC(=O)NCCCCNC(=O)NCCOCCOCCNS(=O)(=O)c2ccc(O[C@H]3c4cc(Cl)cc(Cl)c4C[C@@H]3N3CCC[C@@H](N)C3)c(C)c2)ccc1O[C@H]1c2cc(Cl)cc(Cl)c2C[C@@H]1N1CCC[C@@H](N)C1 [Example 1, 1-[2-(2-[2-[(4-[[(1S,2S)-2-[(3R)-3-Aminopiperidin-1-yl]-4,6-dichloro-2,3-dihydro-1H-inden-1-yl]oxy]-3-methylbenzene)sulfonamido]ethoxy]ethoxy)ethyl]-3-[4-([[2-(2-[2-([4-[[(1S,2S)-2-[(3R)-3-aminopiperidin-1-yl]-4,6-dichloro-2,3-dihydro-1H-inden-1-yl]oxy]-3-methylbenzene)sulfonamido]ethoxy]ethoxy)ethyl]carbamoyl]amino)butyl]urea] | C (>70%) | C (NHE3 pIC50 > 7) | B (40-70%) | C (NHE3 pIC50 > 7)
2 | N[C@@H]1CCCN([C@H]2Cc3c(Cl)cc(Cl)cc3[C@@H]2Oc2ccc(S(=O)(=O)NCCOCCOCCNC(=O)NCCCCNC(=O)NCCOCCOCCNS(=O)(=O)c3ccc(O[C@H]4c5cc(Cl)cc(Cl)c5C[C@@H]4N4CCC[C@@H](N)C4)c(F)c3)cc2F)C1 [Example 2] | C (>70%) | – | C (>70%) | –
3 | Cc1cc(Cl)cc2c1C[C@H](N1CCC[C@@H](N)C1)[C@H]2Oc1ccc(S(=O)(=O)NCCOCCOCCNC(=O)NCCCCNC(=O)NCCOCCOCCNS(=O)(=O)c2ccc(O[C@H]3c4cc(Cl)cc(C)c4C[C@@H]3N3CCC[C@@H](N)C3)cc2)cc1 [Example 3, 3-[2-(2-[2-[(4-[[(1S,2S)-2-[(3R)-3-Aminopiperidin-1-yl]-6-chloro-4-methyl-2,3-dihydro-1H-inden-1-yl]oxy]benzene)sulfonamido]ethoxy]ethoxy)ethyl]-1-[4-([[2-(2-[2-[(4-[[(1S,2S)-2-[(3R)-3-aminopiperidin-1-yl]-6-chloro-4-methyl-2,3-dihydro-1H-inden-1-yl]oxy]benzene)sulfonamido]ethoxy]ethoxy)ethyl]carbamoyl]amino)butyl]urea] | C (>70%) | – | C (>70%) | –
4 | N#Cc1cc(Cl)cc2c1C[C@H](N1CCC[C@@H](N)C1)[C@H]2Oc1ccc(S(=O)(=O)NCCOCCOCCNC(=O)NCCCCNC(=O)NCCOCCOCCNS(=O)(=O)c2ccc(O[C@H]3c4cc(Cl)cc(C#N)c4C[C@@H]3N3CCC[C@@H](N)C3)cc2)cc1 [Example 4, 3-[2-(2-[2-[(4-[[(1S,2S)-2-[(3R)-3-Aminopiperidin-1-yl]-6-chloro-4-cyano-2,3-dihydro-1H-inden-1-yl]oxy]benzene)sulfonamido]ethoxy]ethoxy)ethyl]-1-[4-([[2-(2-[2-[(4-[[(1S,2)-2-[(3R)-3-aminopiperidin-1-yl]-6-chloro-4-cyano-2,3-dihydro-1H-inden-1-yl]oxy]benzene)sulfonamido]ethoxy]ethoxy)ethyl]carbamoyl]amino)butyl]urea; bis(trifluoroacetic acid)] | B (40-70%) | – | B (40-70%) | –
5 | COc1cc(Cl)cc2c1C[C@H](N1CCC[C@@H](N)C1)[C@H]2Oc1ccc(S(=O)(=O)NCCOCCOCCNC(=O)NCCCCNC(=O)NCCOCCOCCNS(=O)(=O)c2ccc(O[C@H]3c4cc(Cl)cc(OC)c4C[C@@H]3N3CCC[C@@H](N)C3)cc2)cc1 [Example 5, 3-[2-(2-[2-[(4-[[(1S,2S)-2-[(3R)-3-Aminopiperidin-1 yl]-6-chloro-4-methoxy-2,3-dihydro-1H-inden-1-yl]oxy]benzene)sulfonamido]ethoxy]ethoxy)ethyl]-1-[4-[[(2-(2-[2-[(4-[[(1S,2S)-2-[(3R)-3-aminopiperidin-1-yl]-6-chloro-4-methoxy-2,3-dihydro-1H-inden-1-yl]oxy]benzene)sulfonamido]ethoxy]ethoxy)ethyl]carbamoyl]amino)butyl]urea; bis(trifluoroacetic acid)] | B (40-70%) | – | C (>70%) | –
6 | Cc1cc(S(=O)(=O)NCCOCCOCCNC(=O)NCCCCNC(=O)NCCOCCOCCNS(=O)(=O)c2ccc(O[C@H]3c4cc(Cl)cc(F)c4C[C@@H]3N3CCC[C@@H](N)C3)c(C)c2)ccc1O[C@H]1c2cc(Cl)cc(F)c2C[C@@H]1N1CCC[C@@H](N)C1 [Example 6] | A (NHE3 < 40%) | A (NHE3 pIC50 < 6) | A (NHE3 < 40%) | A (NHE3 pIC50 < 6)
7 | Cc1cc(S(=O)(=O)NCCOCCOCCNC(=O)NCCCCNC(=O)NCCOCCOCCNS(=O)(=O)c2ccc(O[C@H]3c4cc(Cl)cc(C)c4C[C@@H]3N3CCC[C@@H](N)C3)c(C)c2)ccc1O[C@H]1c2cc(Cl)cc(C)c2C[C@@H]1N1CCC[C@@H](N)C1 [Example 7, 3-[2-(2-[2-[(4-[[(1S,2S)-2-[(3R)-3-Aminopiperidin-1-yl]-6-chloro-4-methyl-2,3-dihydro-1H-inden-1-yl]oxy]-3-methylbenzene)sulfonamido]ethoxy]ethoxy)ethyl]-1-[4-([[2-(2-[2-[(4-[[(1S,2S)-2-[(3R)-3-aminopiperidin-1-yl]-6-chloro-4-methyl-2,3-dihydro-1H-inden-1-yl]oxy]-3-methylbenzene)sulfonamido]ethoxy]ethoxy)ethyl]carbamoyl]amino)butyl]urea] | C (>70%) | – | C (>70%) | –
8 | Cc1cc(S(=O)(=O)NCCOCCOCCNC(=O)NCCCCNC(=O)NCCOCCOCCNS(=O)(=O)c2ccc(O[C@H]3c4cc(Cl)cc(C#N)c4C[C@@H]3N3CCC[C@@H](N)C3)c(C)c2)ccc1O[C@H]1c2cc(Cl)cc(C#N)c2C[C@@H]1N1CCC[C@@H](N)C1 [Example 8, 3-[2-(2-[2-[(4-[[(1S,2S)-2-[(3R)-3-Aminopiperidin-1-yl]-6-chloro-4-cyano-2,3-dihydro-1H-inden-1-yl]oxy]-3-methylbenzene)sulfonamido]ethoxy]ethoxy)ethyl]-1-[4-([[2-(2-[2-[(4-[[(1S,2S)-2-[(3R)-3-aminopiperidin-1-yl]-6-chloro-4-cyano-2,3-dihydro-1H-inden-1-yl]oxy]-3-methylbenzene)sulfonamido]ethoxy]ethoxy)ethyl]carbamoyl]amino)butyl]urea; bis(trifluoroacetic acid)] | A (NHE3 < 40%) | – | A (NHE3 < 40%) | –
